The experiment deals with Proto-oncogene tyrosine-protein kinase Src (Homo sapiens, UniProt P12931). Description: Binding affinity against Src-homology 2 (SRC SH2).
Sequence of Proto-oncogene tyrosine-protein kinase Src (P12931 2-536 limits assumed): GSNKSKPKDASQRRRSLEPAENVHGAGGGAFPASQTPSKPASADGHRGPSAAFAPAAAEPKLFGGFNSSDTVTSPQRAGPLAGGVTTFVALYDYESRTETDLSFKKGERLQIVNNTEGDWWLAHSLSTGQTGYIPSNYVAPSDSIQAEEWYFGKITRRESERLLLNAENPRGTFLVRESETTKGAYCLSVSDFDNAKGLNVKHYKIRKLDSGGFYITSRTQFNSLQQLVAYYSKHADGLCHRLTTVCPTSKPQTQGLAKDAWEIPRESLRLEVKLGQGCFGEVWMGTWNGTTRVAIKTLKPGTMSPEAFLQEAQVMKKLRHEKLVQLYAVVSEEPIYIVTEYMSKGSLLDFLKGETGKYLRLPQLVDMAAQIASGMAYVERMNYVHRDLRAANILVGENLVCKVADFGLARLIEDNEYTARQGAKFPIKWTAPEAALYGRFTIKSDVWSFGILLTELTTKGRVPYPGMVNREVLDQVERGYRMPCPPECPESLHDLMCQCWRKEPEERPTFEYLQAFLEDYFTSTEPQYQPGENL

As usually defined, the IC50 is the concentration that inhibits the measured activity by half. As to `CC(=O)N[C@@H](Cc1ccc(OP(=O)(O)O)cc1)C(=O)N[C@@H](Cc1c[nH]c2ccccc12)c1nc(Cc2cccc3ccccc23)no1`, the IC50 stood at 279 µM.

As to `CC(=O)N[C@@H](Cc1ccc(OP(=O)(O)O)cc1)C(=O)N[C@@H](CCC(=O)O)c1nc(CC2CCCCC2)no1`, the half-inhibitory concentration (IC50) was 29 µM.

With `CC(=O)N[C@@H](Cc1ccc(OP(=O)(O)O)cc1)C(=O)N[C@@H](CCC(=O)O)c1nc(CC(C)C)no1`, the IC50 stood at 166 µM.

Compound `CC(=O)N[C@@H](Cc1ccc(OP(=O)(O)O)cc1)C(=O)N[C@@H](Cc1c[nH]c2ccccc12)c1nc(CC2CCCCC2)no1` yielded an IC50 of 62 µM.

With `CCCCCCc1noc([C@H](Cc2c[nH]c3ccccc23)NC(=O)[C@H](Cc2ccc(OP(=O)(O)O)cc2)NC(C)=O)n1`, the IC50 turned out to be 16 µM.

Compound `CC(=O)N[C@@H](Cc1ccc(OP(=O)(O)O)cc1)C(=O)N[C@@H](CCC(=O)O)c1nc(Cc2ccccc2)no1` registered an IC50 of 92 µM.

For `CCCCCc1noc([C@H](CC)NC(=O)[C@H](Cc2ccc(OP(=O)(O)O)cc2)NC(C)=O)n1`, the IC50 is 65 µM.

`CC(=O)N[C@@H](Cc1ccc(OP(=O)(O)O)cc1)C(=O)N[C@@H](Cc1c[nH]c2ccccc12)c1nc(Cc2ccccc2)no1`: the IC50 came to 25 µM.

Turning to `CC(=O)N[C@@H](Cc1ccc(OP(=O)(O)O)cc1)C(=O)N[C@@H](Cc1c[nH]c2ccccc12)c1nc(CCCC(C)C)no1`, the IC50 was 89 µM.

Regarding `CCCCCc1noc([C@H](Cc2c[nH]c3ccccc23)NC(=O)[C@H](Cc2ccc(OP(=O)(O)O)cc2)NC(C)=O)n1`, the IC50 is 36 µM.

The compound `CCCCCCc1noc([C@H](CCC(=O)O)NC(=O)[C@H](Cc2ccc(OP(=O)(O)O)cc2)NC(C)=O)n1` displayed an IC50 of 8 µM.

`CCCCCCCc1noc([C@H](Cc2c[nH]c3ccccc23)NC(=O)[C@H](Cc2ccc(OP(=O)(O)O)cc2)NC(C)=O)n1` showed a 50% inhibitory concentration (IC50) of 35 µM.

With `CCCCCCCc1noc([C@H](CCC(=O)O)NC(=O)[C@H](Cc2ccc(OP(=O)(O)O)cc2)NC(C)=O)n1`, the IC50 was found to be 7 µM.

As to `CC(=O)N[C@@H](Cc1ccc(OP(=O)(O)O)cc1)C(=O)N[C@@H](CCC(=O)O)c1nc(CC2CCCCC2)cs1`, the IC50 stood at 26 µM.

As for `CC(=O)N[C@@H](Cc1ccc(OP(=O)(O)O)cc1)C(=O)N[C@@H](CCC(N)=O)c1nc(CC2CCCCC2)no1`, the IC50 was 278 µM.

As for `CCCCc1noc([C@H](CCC(N)=O)NC(=O)[C@H](Cc2ccc(OP(=O)(O)O)cc2)NC(C)=O)n1`, the IC50 turned out to be 384 µM.

`CCCCCc1noc([C@H](CCC(=O)O)NC(=O)[C@H](Cc2ccc(OP(=O)(O)O)cc2)NC(C)=O)n1` yielded an IC50 of 21 µM.

As to `CC(=O)N[C@@H](Cc1ccc(OP(=O)(O)O)cc1)C(=O)N[C@@H](Cc1c[nH]c2ccccc12)c1nc(CCC(C)C)no1`, the IC50 was 33 µM.

Take `CC(=O)N[C@@H](Cc1ccc(OP(=O)(O)O)cc1)C(=O)N[C@@H](CCC(N)=O)c1nc(CCC(C)C)no1`: the IC50 was determined as 320 µM.

`CC(=O)N[C@@H](Cc1ccc(OP(=O)(O)O)cc1)C(=O)NCc1nc(CC2CCCCC2)cs1` showed an IC50 of 483 µM.

`CC[C@H](NC(=O)[C@H](Cc1ccc(OP(=O)(O)O)cc1)NC(C)=O)c1nc(CCC(C)C)no1`: the IC50 worked out at 111 µM.

For the compound `CC(=O)N[C@@H](Cc1ccc(OP(=O)(O)O)cc1)C(=O)N[C@@H](CCC(=O)O)c1nc(CCC(C)C)no1`, the half-inhibitory concentration (IC50) stood at 61 µM.

`CC(=O)N[C@@H](Cc1ccc(OP(=O)(O)O)cc1)C(=O)N[C@@H](CCC(=O)O)c1nc(CCC(C)C)cs1` came in with a half-inhibitory concentration (IC50) of 76 µM.

Compound `CC(=O)N[C@@H](Cc1ccc(OP(=O)(O)O)cc1)C(=O)N[C@@H](CCC(=O)O)c1nc(CC(C)C)cs1` showed an IC50 of 218 µM.

For the compound `CCCCCCCc1noc([C@H](CC)NC(=O)[C@H](Cc2ccc(OP(=O)(O)O)cc2)NC(C)=O)n1`, the IC50 is 22 µM.

On to `CC(=O)N[C@@H](Cc1ccc(OP(=O)(O)O)cc1)C(=O)N[C@@H](CCC(=O)O)c1ncc(CC2CCCCC2)s1`, for which the 50% inhibitory concentration (IC50) was 16 µM.

In turn, `CCCCCCc1cnc([C@H](Cc2c[nH]c3ccccc23)NC(=O)[C@H](Cc2ccc(OP(=O)(O)O)cc2)NC(C)=O)s1` showed an IC50 of 14 µM.

In turn, `CCCCCCc1noc([C@H](CCC(N)=O)NC(=O)[C@H](Cc2ccc(OP(=O)(O)O)cc2)NC(C)=O)n1` came in with an IC50 of 24 µM.

Compound `CCCCCCc1noc([C@H](CC)NC(=O)[C@H](Cc2ccc(OP(=O)(O)O)cc2)NC(C)=O)n1` displayed a half-inhibitory concentration (IC50) of 25 µM.

In turn, `CCCCCCc1cnc([C@H](CC)NC(=O)[C@H](Cc2ccc(OP(=O)(O)O)cc2)NC(C)=O)s1` displayed an IC50 of 12 µM.

`CC(=O)N[C@@H](Cc1ccc(OP(=O)(O)O)cc1)C(=O)NCc1nc(CC2CCCCC2)no1`: the IC50 was 896 µM.

The record behind these values is ChEMBL document CHEMBL1132393, “Structure-activity relationships of a novel class of Src SH2 inhibitors” (Bioorg Med Chem Lett, 1999).
